This passage reports IC50 results from BindingDB's records for doi:10.1021/jm070645a (Rockefeller University, 2007).

The target in this assay is Mitogen-activated protein kinase 1 (Homo sapiens, UniProt P28482). As to the kind of experiment: Radiological Kinase Inhibition Assay. Particulars: pH 7.5; 22 °C. As to the method: Kinase activity was assayed for autophosphorylation and phosphorylation of MBP with radio-labeled gamma-32P. IC50 values were calculated from binding curves using LSW Data Analysis Tool Box version 1.1.1 in MicroSoft Excel.
Sequence of Mitogen-activated protein kinase 1 (P28482 whole entry): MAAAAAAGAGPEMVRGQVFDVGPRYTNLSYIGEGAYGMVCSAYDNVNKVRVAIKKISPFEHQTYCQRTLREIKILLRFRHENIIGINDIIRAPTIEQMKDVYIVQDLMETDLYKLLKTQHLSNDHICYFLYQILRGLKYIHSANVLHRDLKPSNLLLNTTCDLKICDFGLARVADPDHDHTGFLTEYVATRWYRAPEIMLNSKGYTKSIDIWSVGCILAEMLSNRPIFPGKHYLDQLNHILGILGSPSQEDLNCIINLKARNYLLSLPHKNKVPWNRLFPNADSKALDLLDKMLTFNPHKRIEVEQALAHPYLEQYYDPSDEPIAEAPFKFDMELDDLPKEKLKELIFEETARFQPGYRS

Each structure is given as a SMILES string.

For the compound `O=C1NC(=O)C(=Cc2ccc(Sc3ccc(Cl)cc3)c([N+](=O)[O-])c2)C(=O)N1` [5-({4-[(4-chlorophenyl)sulfanyl]-3-nitrophenyl}methylidene)pyrimidine-2,4,6(1H,3H,5H)-trione], it took 53 µM to reach half-maximal inhibition (IC50).

As to `O=C1c2ccccc2C(=O)c2cc(S(=O)(=O)Nc3cccc([N+](=O)[O-])c3)ccc21` [N-(3-nitrophenyl)-9,10-dioxo-9,10-dihydroanthracene-2-sulfonamide], the IC50 was above 200 µM.

A word on the IC50: it is the concentration that inhibits the measured activity by half. Low readings indicate inhibition by little substance, high ones a need for much substance.
